Where a name gives a salt, the structure may show the parent alone.
Columns and labels:
M109 lung carcinoma = assay: In vivo activity against M109 lung carcinoma implanted intraperitoneally (mice M109 model), median survival; set-up: species or system Balb/o x DBA/2 F1 hybrid mice
Experimental: Balb/o x DBA/2 F1 hybrid mice were implanted intraperitoneally, as described by William Rose in "Evaluation of Madison 109 Lung Carcinoma as a Model for Screening Antitumor Drugs, "Cancer Treatment Reports, 65 No. 3-4 (1981), with 0.5 mL of a 2% (w/v) brei of M109 lung carcinoma (the mice M109 model).
Mice were treated with a compound under study by receiving intraperitoneal injections of various doses on either Day 1, 5, and 9 post-tumor implant or Days 5 and 8 post-implant. Mice were followed daily for survival until approximately 75-90 days post-tumor implant. One group of mice per experiment remained untreated and served as the control group.
Median survival times of compound-treated (T) mice were compared to the median survival time of the control (C) mice. The ratio of the two values for each compound-treated group of mice was multiplied by 100 and expressed as a percentage (i.e.% T/C) in Table 2 for certain representative compounds.

[1] = cited from earlier work
B16 melanoma cells = conditions: compared with taxol; cited from earlier work
[2] = cited from earlier work; remark: listed apart in the source
[3] = cited from earlier work; remark: listed apart in the source
[4] = Stability in mildly basic aqueous solution; assay type: physicochemical
[5] = Stability in pH 5 buffer / mildly acidic aqueous solution (HPLC or TLC, onset of cloudiness); assay type: physicochemical; conditions: room temperature
Experimental: **Stabilities were determined in pH 5 buffer solution by one of the two
methods indicated below.
(a) 9.5 mg of sample was dissolved in 0.2 ml of EtOH and 0.2 ml of pH 5
buffer solution and let stand at room temperature. The progress of
decomposition was checked by HPLC or TLC and observation of the onset of
(b) 0.5 mg of sample was dissolved in 0.1 ml of EtOH and 0.9 ml of pH 5
buffer solution, the other conditions were the same as in (a) above. All
samples were stable under these conditions for at least 24 hours. No
hydrolysis was detectable by HPLC or TLC during this time period.

[6] = Relative solubility by the 1-octanol and water partition method (UV absorption at 228 nm), taxol = 1
Experimental: In separate experiments, taxol derivative 4 and 2'-succinyl taxol (R=NaO2 CCH2 CH2 CO2) were dissolved in a mildly basic aqueous solution.
*Solubilities were determined by using the 1octanol and water partition
method.Sample concentrations in water were determined by UV absorptions a […]

tubulin = conditions: cited from earlier work
[7] = method (b): 0.5 mg in 0.1 ml EtOH and 0.9 ml pH 5 buffer
[8] = method (a): 9.5 mg in 0.2 ml EtOH and 0.2 ml pH 5 buffer

Compound: 2'-(4-benzyloxocarbonylbensoyl -7-(4-carboxybensoyl)taxol [Compound 17]
- T/C (M109 lung carcinoma; Q03Dx2;5, ip/ip, dose 13): 97%
- T/C (M109 lung carcinoma; Q03Dx2;5, ip/ip, dose 26): 100%
- T/C (M109 lung carcinoma; Q03Dx2;5, ip/ip, dose 52): 109%

Compound: CC(=O)O[C@H]1C(=O)[C@]2(C)[C@@H](OC(C)=O)C[C@H]3OC[C@@]3(OC(C)=O)[C@H]2[C@H](OC(=O)c2ccccc2)[C@]2(O)C[C@H](OC(=O)[C@H](OC(C)=O)[C@@H](NC(=O)c3ccccc3)c3ccccc3)C(C)=C1C2(C)C [2',7-diacetyltaxol]
- hydrolysis of acyl substituents under in vivo conditions [1]: readily hydrolyzed

Compound: CC(=O)O[C@H]1C(=O)[C@@]2(C)[C@H]([C@H](OC(=O)c3ccccc3)[C@]3(O)C[C@H](OC(=O)[C@H](OC(=O)CN(C)C)[C@@H](NC(=O)c4ccccc4)c4ccccc4)C(C)=C1C3(C)C)[C@]1(OC(C)=O)CO[C@@H]1C[C@@H]2O [2'-(N,N-dimethylglycyl) taxol]
- inhibition of proliferation of B16 melanoma cells relative to taxol (B16 melanoma cells): to an extent similar to that of taxol

Compound: CC(=O)O[C@H]1C(=O)[C@@]2(C)[C@H]([C@H](OC(=O)c3ccccc3)[C@]3(O)C[C@H](OC(=O)[C@H](OC(=O)CCC(=O)NCCCS(=O)(=O)O)[C@@H](NC(=O)c4ccccc4)c4ccccc4)C(C)=C1C3(C)C)[C@]1(OC(C)=O)CO[C@@H]1C[C@@H]2O [2'-([4-((3-sulfopropyl)amino-1,4-dioxobutyl]oxy)taxolsodium salt]
- antineoplastic activity in mice [2]: active as antineoplastic agents in mice
- aqueous solubility [3]: improved water-solubility as compared with taxol

Compound: CC(=O)O[C@H]1C(=O)[C@@]2(C)[C@H]([C@H](OC(=O)c3ccccc3)[C@]3(O)C[C@H](OC(=O)[C@H](OC(=O)CCN(C)C)[C@@H](NC(=O)c4ccccc4)c4ccccc4)C(C)=C1C3(C)C)[C@]1(OC(C)=O)CO[C@@H]1C[C@@H]2O [2'-[3-(N,N-dimethylamino)propionyl]taxol]
- inhibition of proliferation of B16 melanoma cells relative to taxol (B16 melanoma cells): to an extent similar to that of taxol

Compound: CC(=O)O[C@H]1C(=O)[C@@]2(C)[C@H]([C@H](OC(=O)c3ccccc3)[C@]3(O)C[C@H](OC(=O)[C@H](OC(=O)CCC(=O)O)[C@@H](NC(=O)c4ccccc4)c4ccccc4)C(C)=C1C3(C)C)[C@]1(OC(C)=O)CO[C@@H]1C[C@@H]2O [2'-succinyl taxol, 2'-succinyl taxol (R=NaO2 CCH2 CH2 CO2), reference compound]
- time until solution turned cloudy [4]: less than 24 hours
- degraded at 24 h ([4]; read-out: decomposed): ~50%

Compound: CC(=O)O[C@H]1C(=O)[C@@]2(C)[C@H]([C@H](OC(=O)c3ccccc3)[C@]3(O)C[C@H](OC(=O)[C@H](OC(=O)CCC(=O)NCCS(=O)(=O)O)[C@@H](NC(=O)c4ccccc4)c4ccccc4)C(C)=C1C3(C)C)[C@]1(OC(C)=O)CO[C@@H]1C[C@@H]2O [--O2 CCH2 CH2 CONHCH2 --CH2 SO3 Na, 2'-([4-((2-sulfoethyl)amino)-1,4-dioxobutyl]oxy)taxol sodium salt]
- antineoplastic activity in mice [2]: active as antineoplastic agents in mice
- Stabilities at pH 5 [5, 7]: > 24 h
- aqueous solubility [3]: improved water-solubility as compared with taxol

Compound: CC(=O)O[C@H]1C(=O)[C@@]2(C)[C@H]([C@H](OC(=O)c3ccccc3)[C@]3(O)C[C@H](OC(=O)[C@H](OC(=O)CCS(=O)(=O)O)[C@@H](NC(=O)c4ccccc4)c4ccccc4)C(C)=C1C3(C)C)[C@]1(OC(C)=O)CO[C@@H]1C[C@@H]2O [--O2 CCH2 CH2 SO3 Na, 2'-[(3-sulfo-1-oxopropyl)oxy]taxol sodium salt]
- antineoplastic activity in mice [2]: active as antineoplastic agents in mice
- Stabilities at pH 5 [5, 7]: > 24 h
- aqueous solubility [3]: improved water-solubility as compared with taxol

Compound: CC(=O)O[C@H]1C(=O)[C@@]2(C)[C@H]([C@H](OC(=O)c3ccccc3)[C@]3(O)C[C@H](OC(=O)[C@H](OC(=O)c4ccccc4C(=O)O)[C@@H](NC(=O)c4ccccc4)c4ccccc4)C(C)=C1C3(C)C)[C@]1(OC(C)=O)CO[C@@H]1C[C@@H]2O [Compound 4, Taxol 2'-(sodium 1,2-benzenedicarboxylate)]
- Relative Solubility (p') [6]: 3
- T/C (M109 lung carcinoma; Q03Dx2;5, ip/ip, dose 15): 106%
- T/C (M109 lung carcinoma; Q03Dx2;5, ip/ip, dose 30): 135%
- T/C (M109 lung carcinoma; Q03Dx2;5, ip/ip, dose 60): 141%
- appearance of solution [4]: remained clear
- extent of decomposition [4]: remained substantially intact
- Stabilities at pH 5 [5, 8]: > 24 h

Compound: CC(=O)O[C@H]1C(=O)[C@@]2(C)[C@H]([C@H](OC(=O)c3ccccc3)[C@]3(O)C[C@H](OC(=O)[C@H](OC(=O)c4ccc(C(=O)O)cc4)[C@@H](NC(=O)c4ccccc4)c4ccccc4)C(C)=C1C3(C)C)[C@]1(OC(C)=O)CO[C@@H]1C[C@@H]2O [Compound 7, Taxol 2'-(sodium 1,4-benzenedioarboxylate)]
- solubility relative to ortho benzoyl carboxylate derivative 4 ([6]; compared with 4): twice as soluble
- T/C (M109 lung carcinoma; Q03Dx2;5, ip/ip, dose 15): 112%
- T/C (M109 lung carcinoma; Q03Dx2;5, ip/ip, dose 30): 141%
- T/C (M109 lung carcinoma; Q03Dx2;5, ip/ip, dose 60): 141%
- in vivo biological activity relative to derivative 4 (M109 lung carcinoma; mice M109 model): superior in vivo biological activity
- Stabilities at pH 5 [5, 8]: > 24 h

Compound: CC(=O)O[C@H]1C(=O)[C@@]2(C)[C@H]([C@H](OC(=O)c3ccccc3)[C@]3(O)C[C@H](OC(=O)[C@H](OC(=O)c4cc(C(=O)O)cc(C(=O)O)c4)[C@@H](NC(=O)c4ccccc4)c4ccccc4)C(C)=C1C3(C)C)[C@]1(OC(C)=O)CO[C@@H]1C[C@@H]2O [Compound 8c, Taxol 2'-(disodium 1,3,5-benzenetricarboxylate)]
- Stabilities at pH 5 [5, 7]: > 24 h

Compound: CC(=O)O[C@H]1C(=O)[C@@]2(C)[C@H]([C@H](OC(=O)c3ccccc3)[C@]3(O)C[C@H](OC(=O)[C@H](OC(=O)c4ccccc4S(=O)(=O)O)[C@@H](NC(=O)c4ccccc4)c4ccccc4)C(C)=C1C3(C)C)[C@]1(OC(C)=O)CO[C@@H]1C[C@@H]2O [Compound 11, 2'-(2-Sulfobenzoyl) taxol, sodium salt]
- Relative Solubility (p') [6]: 96
- Stabilities at pH 5 [5, 7]: > 24 h

Compound: CC(=O)O[C@H]1C(=O)[C@@]2(C)[C@H]([C@H](OC(=O)c3ccccc3)[C@]3(O)C[C@H](OC(=O)[C@H](OC(=O)c4ccc(S(=O)(=O)O)cc4)[C@@H](NC(=O)c4ccccc4)c4ccccc4)C(C)=C1C3(C)C)[C@]1(OC(C)=O)CO[C@@H]1C[C@@H]2O [Compound 12, 2'-(4-sulfobenzoyl) taxol, sodium salt]
- Relative Solubility (p') [6]: 166
- Stabilities at pH 5 [5, 7]: > 24 h

Compound: CCN(CC)CCNC(=O)c1ccc(C(=O)O[C@@H](C(=O)O[C@H]2C[C@@]3(O)[C@@H](OC(=O)c4ccccc4)[C@@H]4[C@]5(OC(C)=O)CO[C@@H]5C[C@H](O)[C@@]4(C)C(=O)[C@H](OC(C)=O)C(=C2C)C3(C)C)[C@@H](NC(=O)c2ccccc2)c2ccccc2)cc1 [Compound 13b, 2'-[4-([2-(N,N-diethylamino)ethyl]aminocarbonyl)benzoyl]taxol, hydrochloride]
- T/C (M109 lung carcinoma; Z03Dx2;5, ip/ip, dose 50): 118%
- T/C (M109 lung carcinoma; Z03Dx2;5, ip/ip, dose 100): 118%
- T/C (M109 lung carcinoma; Z03Dx2;5, ip/ip, dose 200): 124%
- Stabilities at pH 5 [5, 8]: > 24 h

Compound: CC(=O)O[C@H]1C(=O)[C@]2(C)[C@@H](OC(=O)c3ccccc3C(=O)O)C[C@H]3OC[C@@]3(OC(C)=O)[C@H]2[C@H](OC(=O)c2ccccc2)[C@]2(O)C[C@H](OC(=O)[C@H](OC(=O)c3ccccc3C(=O)O)[C@@H](NC(=O)c3ccccc3)c3ccccc3)C(C)=C1C2(C)C [Compound 15, Taxol 2',7-di(sodium 1,2-benzenedicarboxylate)]
- T/C (M109 lung carcinoma; Z03Dx2;5, site/route not given, dose 15): 100%
- T/C (M109 lung carcinoma; Z03Dx2;5, site/route not given, dose 30): 103%
- T/C (M109 lung carcinoma; Z03Dx2;5, site/route not given, dose 60): 106%

Compound: CC[C@]1(O)C[C@@H]2CN(CCc3c([nH]c4ccccc34)[C@@](C(=O)OC)(c3cc4c(cc3OC)N(C)[C@H]3[C@@](O)(C(=O)OC)[C@H](OC(C)=O)[C@]5(CC)C=CCN6CC[C@]43[C@@H]65)C2)C1 [vinblastine]
- effect on microtubule / tubulin polymer formation (tubulin): prevent microtubule formation
